For data set [1], the system named is nitric oxide (NO) production from LPS activated J774.2 mouse macrophages. In words: Nitric oxide production (Griess), LPS activated macrophages. Type of data set: cell-based. The note with it: J774.2 cells, 30 μg/mL LPS, three doses 1, 10, 100 μg/mL, mean ± SD of three, read-out: NO Inhibition (IC50). How it is done:
The mouse macrophage cell line J774.2 (European Collection of Cell Cultures, UK) was cultured in 75 cc flasks IWAKI (Asahi Techno Glass, Japan) in DMEM Sigma-Aldrich (Steinheim, Germany) supplemented with 10% fetal bovine serum GIBCO (New York, USA)1% streptomycin/penicillin. Flasks were kept at 37 °C in atmosphere of humidified air containing 5% CO2, cells were seeded in 96-well plate (10^6 cells/mL) and were induced by 30 μg/mL e. coli lipopolysaccharide (LPS) (DIFCO Laboratories michigon, USA). The test compounds were added at concentrations of (1, 10 and 100 μg/mL) and plate was incubated at 37 °C in 5% CO2. Nitrite accumulation in culture supernatant was measured using the Griess reagents as described previously.
(Nitrite, measured by Griess reagent, commonly stands in for NO production.)

The nature of data set [2]: MTT cytotoxicity assay. Type of data set: cell-based, mouse. Particulars: mouse; MTT, 48 hours; read-out: Cytotoxicity NIH-3T3 cell line (IC50). How it is done: The cytotoxicity was recorded as concentration causing 50% growth inhibition (IC50).
(Formazan colour is commonly taken as a measure of viable cells.)

For data set [3], the system named is Pseudomonas aeruginosa (POA 286). In words: Microplate Alamar Blue Assay, Pseudomonas aeruginosa. Particulars: Pseudomonas aeruginosa; 200 μg/mL; NI = No inhibition; read-out: Percentage (%) Inhibition, Pseudomonas aerugenosa. Type of data set: cell-based. How it is done: (§1) The anti-bacterial activity of synthesized compound were evaluated by the Microplate Alamar Blue Assay. Staphylococcus aureus (ATCC 25923), Pseudomonas aeruginosa(POA 286), Salmonella typhi (ATCC 14028), Bacillus subtilis ATCC 6633) and Escherichia coli (ATCC 12022) were used in this study as a standard bacterial strains and they were obtained from microbial bank of PCMD, International Center for Chemical and Biological Sciences, University of Karachi, Karachi-75270, Pakistan. The bacterial colonies grown in Trypton Soya Agar (TSA) (Oxoid Limited, UK) were inoculated in Mueller Hinton Broth (MHB) (Oxoid Limited, UK) and incubated overnight at 37 °C. Fully grown bacterial cultures were then diluted to adjust with 0.5 McFarland Turbidity Index (equivalent to 1.5 × 10^8 CFU/mL). Stock solutions (4 mg/mL) of different test compounds were prepared in DMSO and 10μL each of these stock solutions were placed in well of flat bottom, polystyrene, sterile 96-wells plate except the positive control wells (media + bacteria). This gives 200μg/mL concentrations of compounds in final 200 μL solution. Each compound was run in triplicates. Finally, bacterial suspension (5 x 10^6 CFU/mL) was added in each well. Plates were sealed by parafilm and incubated at 37 °C for 18–22 hrs. Next day, 20 μL of 0.02% resazurin sodium salt dye (Chem-Impex-Int’LInc) was added in each well and incubated in shaking incubator at 80 rpm, 37 °C for 2–3 hrs. The color change from blue to reddish pink indicates the growth of bacteria. For quantitative analysis, plates were read at 570 nm and 600 nm in Multiskan GOmicroplate spectrophotometer, (Thermo Scientific, USA). The % inhibition of bacterial growth was calculated using below mentioned formula.
(§2) For the calculation of the % difference in reduction between treated and control cells in cytotoxicity/proliferation assays: =(εOX)λ2Aλ1-(εOX)λ1Aλ2oftestagent/(εOX)λ2A°λ1-(εOX)λ1A°λ2ofpositivegrowthcontrol×100

Data set [4] relates to Bacillus subtilis (ATCC 6633). In words: Microplate Alamar Blue Assay, Bacillus subtilis. Type of data set: cell-based. Particulars: ATCC6633, 200 μg/mL, NI = No inhibition, read-out: Percentage (%) Inhibition, Bacillus subtilis. How it is done: as §1, §2
For orientation: Resazurin is reduced to fluorescent resorufin, in cell work by metabolically active cells.

The test system of data set [5] is Staphylococcus aureus (ATCC 25923). Nature of the data set: Microplate Alamar Blue Assay, Staphylococcus aureus. Type of data set: cell-based. Particulars: Staphylococcus aureus, ATCC25923; 200 μg/mL; NI = No inhibition; read-out: Percentage (%) Inhibition, Staphylococcus aureus. How it is done:
as §1, §2

Data set [6] deals with Escherichia coli (ATCC 12022). Nature of the data set: Microplate Alamar Blue Assay, Escherichia coli. Particulars: ATCC12022, 200 μg/mL, NI = No inhibition, read-out: Percentage (%) Inhibition, Escherichia coli. It counts as cell-based. How it is done:
as §1, §2

Data set [7] concerns Salmonella typhi (ATCC 14028). In words: Microplate Alamar Blue Assay, Salmonella typhi. The note with it: Salmonella enterica; 200 μg/mL; NI = No inhibition; read-out: Percentage (%) Inhibition, Slamonella typhi. Type of data set: cell-based. How it is done: as §1, §2
Data set [8] deals with zymosan activated whole blood phagocytes. In words: Oxidative burst assay (luminol-enhanced chemiluminescence), whole blood. Type of data set: cell-based. Particulars: human whole blood, serum opsonized zymosan, three doses 1, 10, 100 μg/mL, mean ± SD of three, NA = Not active, read-out: Oxidative Burst Inhibition (IC50) WB. How it is done: (§3) Luminol-enhanced chemiluminescence assay was performed, as described by Helfandet al., 1982 [17], with some modifications. Briefly 25 μL of diluted whole blood in HBSS^++ (Hanks Balanced Salt Solution, containing calcium chloride and magnesium chloride) [Sigma, St. Louis, USA] was incubated with 25 μL of three different concentrations of compounds (1, 10, and 100 μg/mL), each in triplicate. Control wells received HBSS^++ and cells, but no compounds. Test was performed in white half area 96-well plates [Costar, NY, USA], which was incubated at 37 °C for 15 minutes in the thermostat chamber of luminometer [Labsystems, Helsinki, Finland]. After incubation, 25 μL of serum opsonized zymosan (SOZ) [Fluka, Buchs, Switzerland] and 25 μL of intracellular reactive oxygen species detecting probe, luminol [Research Organics, Cleveland, OH, USA] were added into each well, except blank wells (containing only HBSS^++). The level of the ROS was recorded in luminometer in term of relative light units (RLU).

Data set [9] concerns isolated polymorphonuclear neutrophils (PMNs). Nature of the data set: Oxidative burst assay (luminol-enhanced chemiluminescence), isolated PMNs. Particulars: Polymorphonuclear neutrophil, isolated human PMNs, zymosan, three doses 1, 10, 100 μg/mL, mean ± SD of three, read-out: Oxidative Burst Inhibition (IC50) PMNs. It counts as cell-based.
From the text: Heparinized blood was obtained by vein puncture aseptically from healthy volunteers. The PMNs were isolated by ficoll-Hypaque density gradient method. The cells were isolated after centrifugation from the tube base. Cells were washed twice and suspended in Hank’s Balance salt solution (HBSS^--) (Ca^2+ and Mg^2+ free), RBCs were lysed using hypotonic solution. Cells were adjusted to their required concentration (1x10^6 cells/mL) using HBSS^++containing Ca^2+ and Mg^2+.
as §3

Consider `[H]/N=C(/NC)NCCC[C@H](N)C(=O)O` [41 (L-NMMA), NG monomethyl L-arginine acetate, reference compound], for which the IC50 (in general, the concentration needed to halve the response being measured) in data set [1] came out at 24.2 ± 0.6 µg/mL.

Turning to `COc1cccc(C(=O)Nc2ccc(S(=O)(=O)Nc3nc(C)cc(C)n3)cc2)c1` [Compound 32, N-(4-(N-(4,6-dimethylpyrimidin-2-yl)sulfamoyl)phenyl)-3-methoxybenzamide], the IC50 in data set [2] is more than 30 µM. Besides, the inhibition (usually how much of the control response was suppressed) at 200 µg/mL in data set [3] was less than 0%; in [4], less than 0%; in [5] it was 32.9%; in data set [6], less than 0%; in data set [7], 19%.

For the compound `Cc1cc(C)nc(NS(=O)(=O)c2ccc(NC(=O)c3cccc(Br)c3)cc2)n1` [Compound 30, 3-Bromo-N-(4-(N-(4,6-dimethylpyrimidin-2-yl)sulfamoyl)phenyl)benzamide], the IC50 in data set [2] is more than 30 µM. Also, the inhibition at 200 µg/mL in data set [3] was less than 0%; in data set [4] it was less than 0%; in [5], 34.2%; in data set [6], less than 0%; in [7] it was 4.26%.

On to `Cc1cc(C)nc(NS(=O)(=O)c2ccc(NC(=O)c3cccc(I)c3)cc2)n1` [Compound 31, N-(4-(N-(4,6-dimethylpyrimidin-2-yl)sulfamoyl)phenyl)-3-iodobenzamide], for which the IC50 in data set [2] was more than 30 µM. In addition, the inhibition at 200 µg/mL in [3] is less than 0%; in [4] it was less than 0%; in data set [5] it was 13%; in data set [6], less than 0%; in [7], less than 0%.

For the compound `Cc1cc(C)nc(NS(=O)(=O)c2ccc(NC(=O)c3ccccc3C)cc2)n1` [Compound 35, N-(4-(N-(4,6-dimethylpyrimidin-2-yl)sulfamoyl)phenyl)-2-methylbenzamide], the 50% inhibitory concentration (IC50) in data set [2] was more than 30 µM. Also, the inhibition at 200 µg/mL in data set [3] was 16.5%; in data set [4], less than 0%; in data set [5] it was less than 0%; in data set [6] it was less than 0%; in [7] it was 0.2%.

For the compound `Cc1cc(C)nc(NS(=O)(=O)c2ccc(NC(=O)c3ccc([N+](=O)[O-])cc3)cc2)n1` [Compound 25, N-(4-(N-(4,6-dimethylpyrimidin-2-yl)sulfamoyl)phenyl)-4-nitrobenzamide], in data set [2], the IC50 was more than 30 µM. Besides, the inhibition at 200 µg/mL in data set [3] was 6.35%; in [4] it was less than 0%; in [5], 17.5%; in data set [6] it was 1.21%; in [7], 4.64%.

`Cc1cc(C)nc(NS(=O)(=O)c2ccc(NC(=O)CCc3ccccc3)cc2)n1` [Compound 37, N-(4-(N-(4,6-dimethylpyrimidin-2-yl)sulfamoyl)phenyl)-3-phenylpropanamide]: in data set [2], the IC50 is more than 30 µM. Also, the inhibition at 200 µg/mL was less than 0% in data set [3]; less than 0% in data set [4]; 10.2% in [5]; less than 0% in data set [6]; less than 0% in data set [7].

Regarding `Cc1ccc(C(=O)Nc2ccc(S(=O)(=O)Nc3nc(C)cc(C)n3)cc2)cc1` [Compound 34, N-(4-(N-(4,6-dimethylpyrimidin-2-yl)sulfamoyl)phenyl)-4-methylbenzamide], in [2], the concentration for half-maximal inhibition (IC50) was more than 30 µM. The inhibition at 200 µg/mL in data set [3] is 15.4%; in data set [4], less than 0%; in [5] it was less than 0%; in data set [6] it was less than 0%; in [7], 0.65%.

As to `CC(C)Cc1ccc(C(C)C(=O)O)cc1` (stereo not drawn) [40 (Ibuprofen), Ibuprofen, reference compound], the IC50 in data set [8] stood at 11.2 ± 1.9 µg/mL; in data set [9], 2.5 ± 0.6 µg/mL.

As for `Cc1cc(C)nc(NS(=O)(=O)c2ccc(NC(=O)c3ccc([N+](=O)[O-])cc3Cl)cc2)n1` [Compound 27, 2-chloro-N-(4-(N-(4,6-dimethylpyrimidin-2-yl)sulfamoyl)phenyl)-4-nitrobenzamide], the IC50 in data set [2] is more than 30 µM. In addition, the inhibition at 200 µg/mL in [3] was less than 0%; in data set [4], less than 0%; in data set [5], 50.1%; in [6], less than 0%; in [7] it was 3.72%.
